# Measured values reported in US20250136559A1, “SMO MODULATOR COMPOUNDS” (OMASS THERAPEUTICS LIMITED, priority 2022, published 2025).
# How the values were obtained:
# Type in all cases: cell-based
# [1] = target: T1, mouse SMO^W535L (Mus musculus, UniProt P56726, W539L); assay: Mouse assay: Gli1 qPCR in MEF cells stably expressing mouse SMO W535L; conditions: mSHh-treated, 24 hours; for IC50: Gli1 inhibition by qPCR, read-out: Mouse W535L pIC50 (converted); for Mouse W535L % Inh: percentage Gli1 inhibition
# T1 construct: expressed in transfected cells
# T1 sequence (P56726 33-793 W539L): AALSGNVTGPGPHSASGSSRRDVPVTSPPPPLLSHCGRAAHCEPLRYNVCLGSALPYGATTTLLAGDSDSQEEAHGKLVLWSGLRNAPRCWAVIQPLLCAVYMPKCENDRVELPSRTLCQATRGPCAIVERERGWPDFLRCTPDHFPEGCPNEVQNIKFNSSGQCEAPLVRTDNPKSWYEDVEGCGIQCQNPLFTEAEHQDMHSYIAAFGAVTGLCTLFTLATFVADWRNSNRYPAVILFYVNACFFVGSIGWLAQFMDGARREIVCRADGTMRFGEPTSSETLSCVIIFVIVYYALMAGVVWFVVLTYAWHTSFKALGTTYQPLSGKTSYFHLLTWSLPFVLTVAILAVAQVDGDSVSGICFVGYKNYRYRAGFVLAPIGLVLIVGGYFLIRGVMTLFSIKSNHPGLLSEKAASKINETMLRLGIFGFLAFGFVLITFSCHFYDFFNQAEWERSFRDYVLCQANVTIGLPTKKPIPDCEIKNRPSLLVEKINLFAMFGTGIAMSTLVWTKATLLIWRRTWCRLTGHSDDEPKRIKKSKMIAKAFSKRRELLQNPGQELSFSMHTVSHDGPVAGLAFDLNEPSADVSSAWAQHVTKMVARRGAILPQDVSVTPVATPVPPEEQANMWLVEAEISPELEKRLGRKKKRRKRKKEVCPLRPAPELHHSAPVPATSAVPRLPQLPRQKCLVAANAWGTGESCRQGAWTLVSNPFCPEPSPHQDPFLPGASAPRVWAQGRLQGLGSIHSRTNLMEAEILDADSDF
# Procedure, shortened: (§1)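 MEFs stably expressing the SMO variant pre-treated with compound 1 h, then stimulated with mSHh and incubated 24 h at 37 °C. Gli1 mRNA quantified by one-step TaqMan qPCR with Gusb reference, four replicates per concentration; expressed as % Gli1 inhibition relative to mSHh-treated controls.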
# [2] = target: T2, mouse SMO^D473H (Mus musculus, UniProt P56726, D477H); assay: Mouse assay: Gli1 qPCR in MEF cells stably expressing mouse SMO D473H; conditions: mSHh-treated, 24 hours; for IC50: Gli1 inhibition by qPCR, read-out: Mouse D473H pIC50 (converted); for Mouse D473H % Inh: percentage Gli1 inhibition
# T2 construct: expressed in transfected cells
# T2 sequence (P56726 33-793 D477H): as the sequence (P56726 33-793 W539L) above, with D445H, L507W counted along it
# Procedure, shortened: as §1
# [3] = target: T3, human SMO D473H (Homo sapiens, UniProt Q99835, D473H); assay: Human assay: Gli1 qPCR in MEF SMO-/- cells BacMam-transduced with hSMO D473H variant; conditions: mSHh-treated, 24 hours; for IC50: Gli1 inhibition by qPCR, read-out: Human D473H pIC50 (converted); for Human D473H % Inh: percentage Gli1 inhibition
# T3 construct: expressed in transfected cells; host or cells: SMO knock-out mouse embryonic fibroblasts (MEF SMO-/-), BacMam transduction
# T3 sequence (Q99835 28-787 D473H): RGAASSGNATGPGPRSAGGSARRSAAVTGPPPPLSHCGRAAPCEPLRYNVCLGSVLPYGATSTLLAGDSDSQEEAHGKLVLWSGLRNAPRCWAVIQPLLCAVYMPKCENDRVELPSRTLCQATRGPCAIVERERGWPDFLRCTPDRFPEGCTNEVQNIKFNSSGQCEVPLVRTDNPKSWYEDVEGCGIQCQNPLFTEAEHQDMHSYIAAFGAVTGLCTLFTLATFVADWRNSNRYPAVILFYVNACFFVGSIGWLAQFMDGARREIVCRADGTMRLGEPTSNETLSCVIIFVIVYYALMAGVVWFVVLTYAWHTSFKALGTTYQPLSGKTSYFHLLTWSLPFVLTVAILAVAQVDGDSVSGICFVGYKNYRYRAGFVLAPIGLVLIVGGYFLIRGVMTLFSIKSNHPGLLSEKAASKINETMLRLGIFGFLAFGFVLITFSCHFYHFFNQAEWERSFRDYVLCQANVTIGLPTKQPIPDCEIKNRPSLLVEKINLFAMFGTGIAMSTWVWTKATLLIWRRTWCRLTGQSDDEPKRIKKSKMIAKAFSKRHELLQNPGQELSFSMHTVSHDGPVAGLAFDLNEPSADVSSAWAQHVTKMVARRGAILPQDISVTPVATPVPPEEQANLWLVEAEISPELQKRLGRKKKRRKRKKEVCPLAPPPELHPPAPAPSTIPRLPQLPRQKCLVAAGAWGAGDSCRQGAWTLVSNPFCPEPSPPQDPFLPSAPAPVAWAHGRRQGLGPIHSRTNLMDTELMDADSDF
# Procedure: Cell culture. All materials were purchased from Sigma-Aldrich, unless otherwise stated.
# (§2) BacMam transduction and compound treatment. MEF^SMO−/− cells were transduced with BacMam virus (MOI 1:10 in the presence of 4.2 mM valproic acid) containing either the hSMO WT or desired receptor variant sequence. Transduced cells were seeded at 6000 cells per well in a Poly-D-Lysine coated 384-well plate (Greiner) before the spent culture medium was removed on the following day and replaced with assay medium (OptiMEM (Gibco) supplemented with 50 U/mL penicillin and 5 mg/mL streptomycin (supplied as a mixture), 0.1 mMMEM Non-Essential Amino Acids (supplied as 100× solution, ThermoFisher), 1 mM sodium pyruvate and 10 mM HEPES) containing test compounds at 2.5× final assay concentrations.
# (§3) Cell lysis and one-step qPCR. The Cells-to-CT™ 1-Step TaqMan® Kit was used in conjunction with TaqMan primer-probe assays for the detection of Gill (FAM, Mm00494654_m1) and Gusb (VIC, Mm01197698_m1) genes (all purchased from Life Technologies). Following 24 hours cell treatment, spent medium was removed and cells were washed with PBS before the application of lysis and stop solution as per manufacturer's instructions. The qPCR reactions were run in a 384-well PCR plate using master mix prepared according to manufacturer's instructions and cell lysate samples from treatment wells. Real-time PCR amplification was detected using the Bio-Rad CFX384 Touch PCR system. Four experimental replicates (two cell replicates and two qPCR replicates) were performed for each compound concentration tested. Real-time data were analysed using the CFX Maestro software (Bio-Rad) and obtained expression values were converted to percentage Gill inhibition by normalising to the average Gill expression of mSHh-treated control samples
# [4] = target: T4, human SMO W535L (Homo sapiens, UniProt Q99835, W535L); assay: Human assay: Gli1 qPCR in MEF SMO-/- cells BacMam-transduced with hSMO W535L variant; conditions: mSHh-treated, 24 hours; for IC50: Gli1 inhibition by qPCR, read-out: Human W535L pIC50 (converted); for Human W535L % Inh: percentage Gli1 inhibition
# T4 construct: expressed in transfected cells; host or cells: SMO knock-out mouse embryonic fibroblasts (MEF SMO-/-), BacMam transduction
# T4 sequence (Q99835 28-787 W535L): as the sequence (Q99835 28-787 D473H) above, with H446D, W508L counted along it
# Procedure: (§4) Cell culture. All materials were purchased from Sigma-Aldrich, unless otherwise stated. SMO knock-out mouse embryonic fibroblasts (MEF^SMO−/−) were maintained in Dulbecco's modified Eagle's medium (DMEM)/high-glucose medium supplemented with 10% foetal bovine serum (FBS, Invitrogen), 50 U/mL penicillin and 5 mg/mL streptomycin (supplied as a mixture), 0.1 mMMEM Non-Essential Amino Acids (supplied as 100× solution, ThermoFisher) and 1 mM sodium pyruvate at 37° C. in a humidified 95% air/5% CO2 atmosphere.
# as §2, with “concentrations. After 1 hour incubation, cells were treated with assay medium containing mSHh prepared at 2.5× of final assay concentrations specified in the text and incubated for a further 24 hours at 37° C. in a humidified 95% air/5% […] atmosphere prior to qPCR analysis.” for “concentrations.”
# as §3
# [5] = target: T5, mouse SMO^WT (Mus musculus, UniProt P56726); assay: Mouse assay: Gli1 qPCR in MEF cells stably expressing mouse SMO WT; conditions: mSHh-treated, 24 hours; for IC50: Gli1 inhibition by qPCR, read-out: Mouse WT pIC50 (converted); for Mouse WT % Inh: percentage Gli1 inhibition
# T5 construct: expressed in transfected cells
# T5 sequence (P56726 33-793): as the sequence (P56726 33-793 W539L) above, with L507W counted along it
# Procedure, shortened: as §1
# [6] = target: T6, hSMO WT (Homo sapiens, UniProt Q99835); assay: Human assay: Gli1 qPCR in MEF SMO-/- cells BacMam-transduced with hSMO WT; conditions: mSHh-treated, 24 hours; for IC50: Gli1 inhibition by qPCR, read-out: Human WT pIC50 (converted); for Human WT % Inh: percentage Gli1 inhibition
# T6 construct: expressed in transfected cells; host or cells: SMO knock-out mouse embryonic fibroblasts (MEF SMO-/-), BacMam transduction
# T6 sequence (Q99835 28-787): as the sequence (Q99835 28-787 D473H) above, with H446D counted along it
# Procedure: as §4
# as §2, with “concentrations. After 1 hour incubation, cells were treated with assay medium containing mSHh prepared at 2.5× of final assay concentrations specified in the text and incubated for a further 24 hours at 37° C. in a humidified 95% air/5% […] atmosphere prior to qPCR analysis.” for “concentrations.”
# as §3
SMILES,IC50 [1] [nM],Mouse W535L % Inh [1] [%],IC50 [2] [nM],Mouse D473H % Inh [2] [%],IC50 [3] [nM],Human D473H % Inh [3] [%],IC50 [4] [nM],Human W535L % Inh [4] [%],IC50 [5] [nM],Mouse WT % Inh [5] [%],IC50 [6] [nM],Human WT % Inh [6] [%]
"CC1CN(Cc2cccc(C(=O)Nc3ccc(-c4nc(C5CC5)n[nH]4)cc3)c2)CCS1(=O)=O (stereo not shown) [Example 1-2, N-[4-(3-Cyclopropyl-1H-1,2,4-triazol-5-yl)phenyl]-3-[(2-methyl-1,1-dioxo-1,4-thiazinan-4-yl)methyl]benzamide]",200,63.3,126,95.6,200,85,20,78.2,15.8,97.3,,
"O=C(Nc1ccc(-c2nc(C3CC3)n[nH]2)cc1)c1cc(F)cc(CN2CCS(=O)(=O)CC2)c1 [Example 2-2, N-[4-(5-Cyclopropyl-1H-1,2,4-triazol-3-yl)phenyl]-3-[(1,1-dioxo-1,4-thiazinan-4-yl)methyl]-5-fluorobenzamide]",126,67.2,126,91.3,794,73.6,7.94,79.1,10,95.8,,
"O=C(Nc1ccc(-c2nc(C3CC3)n[nH]2)cc1)c1cc(Cl)cc(CN2CCS(=O)(=O)CC2)c1 [Example 2-4, 3-Chloro-N-[4-(5-cyclopropyl-1H-1,2,4-triazol-3-yl)phenyl]-5-[(1,1-dioxo-1,4-thiazinan-4-yl)methyl]benzamide]",39.8,60.2,39.8,95.4,631,76.5,5.01,87.8,5.01,95.4,,
"O=C(Nc1ccc(-c2nc(C3CC3)n[nH]2)cc1)c1cccc(CN2CCS(=O)(=O)CC2)c1 [Example 3-3, N-[4-(3-Cyclopropyl-1H-1,2,4-triazol-5-yl)phenyl]-3-[(1,1-dioxo-1,4-thiazinan-4-yl)methyl]benzamide]",158,61.9,158,89.9,1260,77.2,100,88.4,15.8,96.6,31.6,85.9
"O=C(Nc1ccc(-c2nc(C3CCCC3)n[nH]2)cc1)c1cccc(CN2CCS(=O)(=O)CC2)c1 [Example 3-5, N-[4-(3-Cyclopentyl-1H-1,2,4-triazol-5-yl)phenyl]-3-[(1,1-dioxo-1,4-thiazinan-4-yl)methyl]benzamide]",15.8,42.2,50.1,96.7,251,88.3,2.51,75.4,10,96.6,2,83.4
"O=C(Nc1ccc(-c2nc(Cc3ccc(Br)cc3)n[nH]2)cc1)c1cccc(CN2CCS(=O)(=O)CC2)c1 [Example 3-24, N-[4-[3-[(4-bromophenyl)methy]-1H-1,2,4-triazol-5-yl]phenyl]-3-[(1,1-dioxo-1,4-thiazinan-4-yl)methyl]benzamide]",39.8,72.5,50.1,98.5,25.1,104,25.1,98.5,3.98,98.8,6.31,94
"Cc1oc(-c2ccc(NC(=O)c3cccc(CN4CCS(=O)(=O)CC4)c3)cc2)nc1C1CC1 [Example 4-2, N-[4-(4-Cyclopropyl-5-methyl-1,3-oxazol-2-yl)phenyl]-3-[(1,1-dioxo-1,4-thiazinan-4-yl)methyl]benzamide]",15.8,75.3,2.51,98.4,31.6,104.2,25.1,104.6,0.631,97.5,0.501,97.8
"Cn1nc(-c2ccc(NC(=O)c3cccc(CN4CCS(=O)(=O)CC4)c3)cn2)cc1C1CC1 [Example 5-4, N-[6-(5-Cyclopropyl-1-methylpyrazol-3-yl)pyridin-3-yl]-3-[(1,1-dioxo-1,4-thiazinan-4-yl)methyl]benzamide]",251,66.4,126,97.0,794,107.7,39.8,85.9,7.94,97.3,,
"CS(=O)(=O)c1ccc(C(=O)Nc2ccc(Cl)c(-c3ccccn3)c2)c(Cl)c1 [Vismodegib, reference compound]",,,,,,45.4,,92.6,,,,100.1
